Measured values published in patent US4277489A, “1(p-Chlorobenzoyl)-5-methoxy-2-methyl indole-3-acetic acid-3-oxo-isobenzofuranyl ester and pharmaceutical use thereof” (priority 1979, dated 1981).
Where two headings read alike, the source gives them in different places.

How the values were obtained:
Type in all cases: in vivo
rat [1] = test: Ulcerogen activity in the fasted rat (autopsic examination of stomach, jejunum, large intestine and liver); conditions: 5 mg/kg
Method: In order to complete the picture of the possible ulcerogen activity, in the rat, of the product which is the object of this invention, a further research on the rat as against Product A, was performed.
Both the test molecules were suspended in 5% arabic gum and taken to solution.
The pharmacological treatment at the standard dose of 5 mg/kg was effected orally by means of a gastro-oesophageal probe.
The groups of animals were treated after 9, 24, 31, 50, 53, 56, 60 and 70 hours from beginning of the fasting. During the fasting period the animals received subcutaneously, 2 ml/die/animal of a 5% glucose solution in […]. The animals were sacrificed, by decapitation, at 48 and 72 hours from beginning of the fasting; there were drawn for autopsic examination, jejunum and large intestine, which were examined microscopically in order to detect the presence of any possible ulcerations.

mouse [2] = test: Acute toxicity in the mouse, orally; conditions: for Autopsical examination (gastroenteric hyperemia, ulcers): oral
Excerpt: (§1) Firstly, the acute and subacute toxicity in the mouse orally has been tested.
(§2) Table 1- Acute toxicity, in the mouse, of 1-(p-chlorobenzoyl)5-methoxy-2-methylindole-3-acetic acid (Product A) and of 1-(p-chlorobenzoyl) -5-methoxy-2-methylindole-3-acet-3-oxo-1-isobenzofuranyl ester derivative (Product B)

[3] = Acute toxicity in the mouse, orally; conditions: in vivo, oral, read-out: Mortality at 10th day %
Excerpt: as §1, §2

mouse [4] = test: Antalgic activity in the mouse: tail-compression test (Bianchi C. test); conditions: oral; for Time for which the algic stimulus is tolerated: two hours from administration, equal doses
Method: The time elapsing between the algic stimulus and the reaction of the mouse trying to get out of said stimulus was determined in seconds.
The measure was effected at the times 0, 1, 2, 3 hours from administation of the derivative object of the present invention (Product B) and from administration of the comparison compound (Product A).
1--two lots of control animals: 0.5 ml/animal of mucilage of 5% arabic gum;
2--one lot treated with Product A--4 mg/kg;
3--one lot treated with Product A--7 mg/kg;
4--one lot treated with Product B--4 mg/kg;
5--one lot treated with Product B--7 mg/kg.

rat [5] = test: Ulcerogen activity in the fasted rat (autopsic examination of stomach, jejunum, large intestine and liver); conditions: 5 mg/kg; remark: listed apart in the source
[6] = system: paw-oedema, induced by means of sub-plantar injection of carrageenin; test: Anti-phlogistic activity: carrageenin-induced paw-oedema in the rat; conditions: oral
Method: In order to show the therapeutical activity of the derivative, which is an object of this invention, a research was carried out firstly on the anti-phlogistic activity as compared with the one of Product A.
The research was carried out in the rat by using the test of paw-oedema, induced by means of sub-plantar injection of carrageenin in a 1% solution. 0.1 ml of this solution was injected to each animal.
One hour before inoculation of the oedemigenous agent, the two test drugs were administered orally (gastric probe) to the different groups, according to the experimental scheme, and contemporaneously were measured, with a base value, the volume of the right untreated paw.
The treatment was effected on lots of five male animals of average weight of 240-270 g., according to the following experimental scheme:
1--three lots of control animals: 10 ml/kg mucilage of arabic gum;
2--one lot of animals treated with Product A--5 mg/kg;
3--one lot of animals treated with Product A--5.3 mg/kg;
4--one lot of animals treated with Product A--7 mg/kg;
5--one lot of animals treated with Product B--5 mg/kg;
6--one lot of animals treated with Product B--5.3 mg/kg;
7--one lot of animals treated with Product B--7 mg/kg.

[7] = oral, sacrificed at 48 hours from beginning of fasting (3 administrations)
[8] = oral, sacrificed at 72 hours from beginning of fasting (8 administrations)

| Compound | Large intestine (caecum), autopsic examination (rat [1]; [7]) | Small intestine (jejunum), autopsic examination (rat [1]; [7]) | Caecum, autopsic examination (rat [1]; [8]) | Jejunum, autopsic examination (rat [1]; [8]) | Autopsical examination (gastroenteric hyperemia, ulcers) (mouse [2]) | mortality at 240 h ([3]; dose 10 mg/kg) | mortality at 240 h ([3]; dose 18 mg/kg) | mortality at 240 h ([3]; dose 20 mg/kg) | mortality at 240 h ([3]; dose 25 mg/kg) | mortality at 240 h ([3]; dose 28 mg/kg) | Time for which the algic stimulus is tolerated (mouse [4]) | Stomach, autopsic examination (rat [5]; [7]) | Stomach, autopsic examination (rat [5]; [8]) | Anti-phlogistic effect (onset and extent) compared with the comparison product [6] | Anti-phlogistic activity compared with Product A ([6]; doses being equal (5, 5.3, 7 mg/kg), within the first three hours) | Caecum, autopsic examination (rat [1]; in vivo, po) | Liver, macroscopic and microscopic examination (rat [1]; in vivo, po) | Toxic component compared with the free acid (mouse [2]; in vivo) | Antalgic activity compared with the comparison product (mouse [4]; mouse, 4 and 7 mg/kg) | Stomach, autopsic examination (rat [5]; in vivo, po) |
| --- | --- | --- | --- | --- | --- | --- | --- | --- | --- | --- | --- | --- | --- | --- | --- | --- | --- | --- | --- | --- |
| COc1ccc2c(c1)c(CC(=O)O)c(C)n2C(=O)c1ccc(Cl)cc1 [Product A, 1-(p-chlorobenzoyl)-5-methoxy-2-methylindole-3-acetic acid, reference compound] | highly hyperemic | slightly hyperemic, with presence of microulcers | Caecum with hemorrhagic microareas | Jejunum diffusely hyperemic | very marked gastroenteric hyperemia with presence of numerous ulcers | 40% | 70% | 90% | 100% | 100% | ≤ 30 s | Stomach diffusely hyperemic | Stomach highly hyperemic with presence of evident macroulcers |  |  |  |  |  |  |  |
| COc1ccc2c(c1)c(CC(=O)OC1OC(=O)c3ccccc31)c(C)n2C(=O)c1ccc(Cl)cc1 (stereo not shown) [Product B, 1-(p-chlorobenzoyl)-5-methoxy-2-methyl indole-3-acetic acid 3-oxo-1-isobenzofuranyl ester] |  |  |  | Jejunum slightly hyperemic | only a slight gastroenteric hyperemia, but no ulcer | 20% | 40% | 50% | 60% | 70% | 45 s |  |  | remarkably more precocious, as well as more marked | signficantly more active, doses being equal, than the comparison product (Product A) within the first three hours | None at caecum level | nothing pathological resulted | lesser than the one of the free acid | quite superior | No considerable alteration at stomach level |
